The values that follow come from patent US20060211725A1, “Use” (Astellas Pharma Inc., priority 2002, published 2006).

Molecules are shown by their SMILES.

Common to all, as to format: in vivo, rat
The test system of test [1] is F344 kidney allograft in LEW recipient rats. Briefly: Kidney allograft survival, combination with tacrolimus (Example 2). The settings on record: Tacrolimus 1 mg/kg PO, 0-90 day, alone. The method, then: The rats and kidney transplantation methods described in Example 1 were used. The compound (I) at dose of 3 mg/kg and tacrolimus at dose of 1 mg/kg, were administered orally to recipient rats daily for 90 days after transplantation. The isograft, untreated allograft, and allograft treated with tacrolimus 1 mg/kg for 90 days alone served as control groups.

For test [2] the test system is unchanged. As to the kind of experiment: Kidney allograft survival, treatment with brief tacrolimus (Example 4). Conditions: Tacrolimus 1 mg/kg PO, 0-9 day, alone. The method, then:
(§1) The rats and kidney transplantation methods described in Example 1 were used. Tacrolimus at dose of 1 mg/kg from day 0 to day 9 after transplantation, and the compound (I) at doses of 10 mg/kg and 15 mg/kg from day 28 today 60 after transplantation were administered orally to recipient rats. In this study LEW recipients were briefly treated with oral tacrolimus at 1 mg/kg/day for 10 days after transplantation to avoid acute rejection and slow chronic rejection that gradually destroys the F344 kidney graft, resulting in functional and histological changes similar to the chronic rejection in human. The isograft, untreated allograft and allograft treated with tacrolimus 1 mg/kg for 10 days alone served as control groups. Blood and urine samples were collected once a week from recipients with kidney grafts described in Example 1 for measuring their plasma creatinine and proteinuria. Plasma creatinine was tested by Sigma Creatinine Kit and proteinuria by Bio-Rad Protein assay.

Test [3] has the same test system. As to the kind of experiment: Recipient kidney function, treatment with brief tacrolimus (Example 4). The settings on record: brief dose of tacrolimus 1 mg/kg day 0-9 alone; allograft control week 7. The method, then:
as §1

On to `C=CC[C@@H]1/C=C(\C)C[C@H](C)C[C@H](OC)[C@H]2O[C@@](O)(C(=O)C(=O)N3CCCC[C@H]3C(=O)O[C@H](/C(C)=C/[C@@H]3CC[C@@H](O)[C@H](OC)C3)[C@H](C)[C@@H](O)CC1=O)[C@H](C)C[C@@H]2OC` [Tacrolimus, tacrolimus], for which the Survival day in test [1] (n=4) and in test [2] (n=5) was greater than 90 days throughout. The “Survival rate (90 days)” value in test [1] (untreated allograft 40%) amounted to 100%. In test [2] (untreated allograft 40%), this compound had a Survival rate of 100%. For the same compound, in test [3], the “week post transplantation after which plasma creatinine increased rapidly” value is reported as 8 week.
